Results as given in patent US20260271933A1 (priority 2023, published 2026).

Assays:
Phytophthora infestans = experiment: whole plant or invertebrate; type: in vivo; conditions: in Solanum lycopersicum, foliar, read-out: control of Phytophthora infestans
Plasmopara viticola = experiment: whole plant or invertebrate; type: in vivo; conditions: foliar
Pythium ultimum = Pythium ultimum / liquid culture (seedling damping off); type: cell-based; conditions: Globisporangium ultimum, growth inhibition determined photometrically, compared to untreated control
Procedure: Pythium ultimum/Liquid Culture (Seedling Damping Off)
Mycelia fragments and oospores of a newly grown liquid culture of the fungus are directly mixed into nutrient broth (PDB potato dextrose broth). After placing a (DMSO) solution of test compound into a microtiter plate (96-well format), the nutrient broth containing the fungal mycelia/spore mixture is added.
The test plates are incubated at 24° C. and the inhibition of growth is determined photometrically 2-3 days after application.

COC(=O)Nc1ccc(-c2cnc3c(C)cc(C(=O)N4CCN(C)c5cc(F)ccc54)cn23)cn1 [Compound 2, methyl N-[5-[6-(6-fluoro-4-methyl-2,3-dihydroquinoxaline-1-carbonyl)-8-methyl-imidazo[1,2-a]pyridin-3-yl]-2-pyridyl]carbamate]
≥ 80%: pest or weed control at 200 ppm (Phytophthora infestans) | pest or weed control at 200 ppm (Plasmopara viticola) | inhibition of growth at 20 ppm (Pythium ultimum)

COC(=O)Nc1ccc(-c2cnc3ccc(C(=O)N4CCN(C)c5cc(F)ccc54)cn23)cn1 [Compound 3, methyl N-[5-[6-(6-fluoro-4-methyl-2,3-dihydroquinoxaline-1-carbonyl)imidazo[1,2-a]pyridin-3-yl]-2-pyridyl]carbamate]
≥ 80%: pest or weed control at 200 ppm (Phytophthora infestans) | pest or weed control at 200 ppm (Plasmopara viticola) | inhibition of growth at 20 ppm (Pythium ultimum)

COC(=O)Nc1ccc(-c2cnc3ccc(C(=O)N4CC(C(=O)OC)Cc5ccccc54)cn23)cn1 (stereo not drawn) [Compound 11, methyl 1-[3-[6-(methoxycarbonylamino)-3-pyridyl]imidazo[1,2-a]pyridine-6-carbonyl]-3,4-dihydro-2H-quinoline-3-carboxylate]
≥ 80%: pest or weed control at 200 ppm (Phytophthora infestans) | pest or weed control at 200 ppm (Plasmopara viticola) | inhibition of growth at 20 ppm (Pythium ultimum)

COC(=O)Nc1ccc(-c2cnc3ccc(C(=O)N4CCCc5c4ccc(F)c5F)cn23)cn1 [Compound 21, methyl N-[5-[6-(5,6-difluoro-3,4-dihydro-2H-quinoline-1-carbonyl)imidazo[1,2-a]pyridin-3-yl]-2-pyridyl]carbamate]
≥ 80%: pest or weed control at 200 ppm (Phytophthora infestans) | pest or weed control at 200 ppm (Plasmopara viticola) | inhibition of growth at 20 ppm (Pythium ultimum)

COC(=O)Nc1ccc(-c2cnc3ccc(C(=O)N(C)c4ccc(F)cc4OC)cn23)cn1 [Compound 30, methyl N-[5-[6-[(4-fluoro-2-methoxy-phenyl)-methyl-carbamoyl]imidazo[1,2-a]pyridin-3-yl]-2-pyridyl]carbamate]
≥ 80%: pest or weed control at 200 ppm (Phytophthora infestans) | pest or weed control at 200 ppm (Plasmopara viticola) | inhibition of growth at 20 ppm (Pythium ultimum)

CCOC(=O)C1Cc2cc(F)ccc2N(C(=O)c2ccc3ncc(-c4ccc(NC(=O)OC)nc4)n3c2)C1 (stereo not drawn) [Compound 35, ethyl 6-fluoro-1-[3-[6-(methoxycarbonylamino)-3-pyridyl]imidazo[1,2-a]pyridine-6-carbonyl]-3,4-dihydro-2H-quinoline-3-carboxylate]
≥ 80%: pest or weed control at 200 ppm (Phytophthora infestans) | pest or weed control at 200 ppm (Plasmopara viticola) | inhibition of growth at 20 ppm (Pythium ultimum)

COC(=O)Nc1ccc(-c2cnc3ccc(C(=O)N4CCN(C5CC5)c5cc(F)ccc54)cn23)cn1 [Compound 51, methyl N-[5-[6-(4-cyclopropyl-6-fluoro-2,3-dihydroquinoxaline-1-carbonyl)imidazo[1,2-a]pyridin-3-yl]-2-pyridyl]carbamate]
≥ 80%: pest or weed control at 200 ppm (Phytophthora infestans) | pest or weed control at 200 ppm (Plasmopara viticola) | inhibition of growth at 20 ppm (Pythium ultimum)

COC(=O)Nc1ccc(-c2cnc3ccc(C(=O)N4CCCc5cc(F)c(OC)cc54)cn23)cn1 [Compound 64, methyl N-[5-[6-(6-fluoro-7-methoxy-3,4-dihydro-2H-quinoline-1-carbonyl)imidazo[1,2-a]pyridin-3-yl]-2-pyridyl]carbamate]
≥ 80%: pest or weed control at 200 ppm (Phytophthora infestans) | pest or weed control at 200 ppm (Plasmopara viticola) | inhibition of growth at 20 ppm (Pythium ultimum)

COC(=O)Nc1ccc(-c2cnc3ccc(C(=O)N4CCCc5cc(F)ccc54)cn23)cn1 [Compound 66, methyl N-[5-[6-(6-fluoro-3,4-dihydro-2H-quinoline-1-carbonyl)imidazo[1,2-a]pyridin-3-yl]-2-pyridyl]carbamate]
≥ 80%: pest or weed control at 200 ppm (Phytophthora infestans) | pest or weed control at 200 ppm (Plasmopara viticola) | inhibition of growth at 20 ppm (Pythium ultimum)
